This is an account of results in patent US8846929B2, “Substituted-quinoxaline-type piperidine compounds and the uses thereof” (priority 2007, dated 2014).

In the first test the target is human opioid receptor-like (ORL-1) (Homo sapiens (Human), UniProt P41146). Briefly: In vitro ORL-1 receptor [35S]GTPγS functional assay. Type of test: biochemical.
Chain of human opioid receptor-like (ORL-1) (P41146 whole entry): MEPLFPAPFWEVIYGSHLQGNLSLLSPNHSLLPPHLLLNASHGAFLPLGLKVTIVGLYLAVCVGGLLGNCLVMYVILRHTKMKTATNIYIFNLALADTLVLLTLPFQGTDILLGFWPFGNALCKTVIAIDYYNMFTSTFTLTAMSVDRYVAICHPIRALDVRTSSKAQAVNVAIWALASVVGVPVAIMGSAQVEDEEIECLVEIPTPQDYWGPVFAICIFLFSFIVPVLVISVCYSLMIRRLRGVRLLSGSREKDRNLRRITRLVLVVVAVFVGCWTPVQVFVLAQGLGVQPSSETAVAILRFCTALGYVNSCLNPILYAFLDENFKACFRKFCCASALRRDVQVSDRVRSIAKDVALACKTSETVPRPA
Conditions: not given
Consider `O=C(O)c1cccc(CNc2nc3ccccc3n([C@H]3C[C@H]4CC[C@@H](C3)N4C3CCCCCCC3)c2=O)c1` [compound 305], for which the EC50 – broadly, the midpoint of the concentration-response curve – was 394 ± 53 nM.
On to `CC(C)(C)OC(=O)NCCNc1nc2ccccc2n(C2CCN(C3CCCCCCC3)CC2)c1=O` [compound 7, tert-butyl 2-(4-(1-cyclooctylpiperidin-4-yl)-3-oxo-3,4-dihydroquinoxalin-2-ylamino)ethylcarbamate], for which the EC50 amounted to 979 ± 40 nM.
Turning to `CCOC(=O)CN(C)c1nc2ccccc2n(C2CCN(C3CCCCCCC3)CC2)c1=O` [compound 61], the EC50 stood at 1230 ± 238 nM.
For the compound `CC(NC(=O)c1nc2ccccc2n([C@H]2C[C@H]3CC[C@@H](C2)N3C2CCCCCCC2)c1=O)C(=O)O` (stereo partly drawn) [compound 312, 2-(4-((endo)-8-cyclooctyl-8-azabicyclo[3.2.1]octan-3-yl)-3-oxo-3,4-dihydroquinoxaline-2-carboxamido)propanoic acid], it took 138 ± 8.1 nM to reach a half-maximal effect (EC50). Compared with the last compound, the EC50 is about 8.9-fold lower.
The compound `N#Cc1nc2ccccc2n(C2CCN(C3CCCCCCC3)CC2)c1=O` [compound 88] came in with an EC50 of 201 ± 27 nM. This EC50 and that of the compound before are within 1.5-fold of each other.
`O=C(O)CN1CCN(c2nc3ccccc3n([C@H]3C[C@H]4CC[C@@H](C3)N4C3CCCCCCC3)c2=O)CC1` [compound 337, 2-(4-(4-((endo)-8-cyclooctyl-8-azabicyclo[3.2.1]octan-3-yl)-3-oxo-3,4-dihydroquinoxalin-2-yl)piperazin-1-yl)acetic acid] displayed an EC50 of 438 ± 15 nM.
Regarding `CC(=O)N[C@H]1CCN(c2nc3ccccc3n(C3CCN(C4CCCCCCC4)CC3)c2=O)C1` [compound 59], the EC50 amounted to 383 ± 63 nM.
`CNC(=O)c1nc2ccccc2n(C2CCN(C3CCCCCCC3)CC2)c1=O` [compound 78] gave an EC50 of 363 ± 20 nM.
The same measure, in the same setting: in the case of `NC(=O)CNc1nc2ccccc2n(C2CCN(C3CCCCCCC3)CC2)c1=O` [compound 32] it was 406 ± 42 nM; in that of `CCOC(=O)c1nc2ccccc2n(C2CCN(C3CCCCCCC3)CC2)c1=O` [compound 70, ethyl 4-(1-cyclooctylpiperidin-4-yl)-3-oxo-3,4-dihydroquinoxaline-2-carboxylate], 788 ± 44 nM; in that of `O=C1CN(c2nc3ccccc3n(C3CCN(C4CCCCCCC4)CC3)c2=O)CCN1` [compound 18, 1-(1-cyclooctylpiperidin-4-yl)-3-(3-oxopiperazin-1-yl)quinoxalin-2(1H)-one], 1280 ± 84 nM.
Same read-out and setting: under `CC(C)(C)OC(=O)Nc1nc2ccccc2n(C2CCN(C3CCCCCCC3)CC2)c1=O` [compound 14, tert-butyl 4-(1-cyclooctylpiperidin-4-yl)-3-oxo-3,4-dihydroquinoxalin-2-ylcarbamate] stands 4650 ± 238 nM; under `O=c1c(NC[C@@H](O)CO)nc2ccccc2n1C1CCN(C23CC4CC(CC(C4)C2)C3)CC1` [compound 89], 806 ± 85 nM.
The same measure, in the same setting: in the case of `O=C(O)c1nc2ccccc2n(C2CC3CCCC(C2)N3C23CC4CC(CC2C4)C3)c1=O` (stereo not shown) [compound 263, 4-(9-(hexahydro-2,5-methano-pentalen-3a-yl)-9-aza-bicyclo[3.3.1]non-3-yl)-3-oxo-3,4-dihydro-quinoxaline-2-carboxylic acid] it was 298 ± 26 nM.
In turn, `O=c1c(N2CC[C@H](O)C2)nc2ccccc2n1C1CCN(C2CCCCCCC2)CC1` [compound 68] had an EC50 of 478 ± 6.4 nM. This EC50 lies about 1.6-fold higher than the previous one.
Compound `CS(=O)(=O)NC1CCN(c2nc3ccccc3n(C3CCN(C4CCCCCCC4)CC3)c2=O)CC1` [compound 30] yielded an EC50 of 699 ± 19 nM.
Same read-out and setting: in the case of `NC(=O)C1CCCN(c2nc3ccccc3n(C3CCN(C4CCCCCCC4)CC3)c2=O)C1` (stereo not shown) [compound 60] it was 2140 ± 661 nM.
The same measure, in the same setting: in the case of `CC(C)CCC(C)N1[C@@H]2CCC[C@H]1C[C@@H](n1c(=O)c(C(=O)O)nc3ccccc31)C2` (stereo partly shown) [compound 303] it was 298 ± 23 nM; in that of `COC(=O)C(CO)Nc1nc2ccccc2n(C2CCN(C3CCCCCCC3)CC2)c1=O` (stereo not shown) [compound 46], 399 ± 56 nM.
On the same count and under the same terms, under `COC(=O)C1CCN(c2nc3ccccc3n(C3CCN(C4CCCCCCC4)CC3)c2=O)CC1` [compound 16] stands 3750 ± 93 nM.
As for `CC(C)(C)OC(=O)N1CCN(c2nc3ccccc3n(C3CCN(C4CCCCCCC4)CC3)c2=O)CC1` [compound 8, tert-butyl 4-(4-(1-cyclooctylpiperidin-4-yl)-3-oxo-3,4-dihydroquinoxalin-2-yl)piperazine-1-carboxylate], a half-maximal effect (EC50) was put at 4560 ± 1120 nM.
The same measure, in the same setting: under `CC(=O)N[C@@H]1CCN(c2nc3ccccc3n(C3CCN(C4CCCCCCC4)CC3)c2=O)C1` [compound 37] stands 265 ± 31 nM; under `NC(=O)CCNc1nc2ccccc2n(C2CCN(C3CCCCCCC3)CC2)c1=O` [compound 47], 419 ± 12.7 nM; under `O=C(O)c1nc2ccccc2n([C@H]2C[C@H]3CCCC[C@@H](C2)N3C2/C=C\CCCCC2)c1=O` (stereo partly shown) [compound 359], 134 ± 2.7 nM.
The same measure, in the same setting: in the case of `NC(=O)C1CCN(c2nc3ccccc3n(C3CCN(C4CCCCCCC4)CC3)c2=O)CC1` [compound 29] it was 468 ± 81 nM; in that of `O=c1c(NC[C@@H](O)CO)nc2ccccc2n1C1CCN(C2CCCCCCC2)CC1` [compound 54], 464 ± 28 nM.
Regarding `O=c1c(N2Cc3ccccc3C2)nc2ccccc2n1C1CCN(C2CCCCCCC2)CC1` [compound 19, 1-(1-cyclooctylpiperidin-4-yl)-3-(isoindolin-2-yl)quinoxalin-2(1H)-one], it took 286 ± 30 nM to reach a half-maximal effect (EC50).
The same measure, in the same setting: in the case of `CS(=O)(=O)N[C@@H]1CCN(c2nc3ccccc3n(C3CCN(C4CCCCCCC4)CC3)c2=O)C1` [compound 66] it was 108 ± 15.1 nM; in that of `O=C(O)c1nc2ccccc2n([C@H]2C[C@H]3CCC[C@@H](C2)N3C2C3CC4CC(C3)CC2C4)c1=O` (stereo partly shown) [compound 363], 4090 ± 1160 nM.

The next test deals with delta opioid receptor (Homo sapiens (Human), UniProt P41143). Briefly: In vitro delta-opioid receptor binding assay ([3H]-Naltrindole displacement).
Chain of delta opioid receptor (P41143 whole entry): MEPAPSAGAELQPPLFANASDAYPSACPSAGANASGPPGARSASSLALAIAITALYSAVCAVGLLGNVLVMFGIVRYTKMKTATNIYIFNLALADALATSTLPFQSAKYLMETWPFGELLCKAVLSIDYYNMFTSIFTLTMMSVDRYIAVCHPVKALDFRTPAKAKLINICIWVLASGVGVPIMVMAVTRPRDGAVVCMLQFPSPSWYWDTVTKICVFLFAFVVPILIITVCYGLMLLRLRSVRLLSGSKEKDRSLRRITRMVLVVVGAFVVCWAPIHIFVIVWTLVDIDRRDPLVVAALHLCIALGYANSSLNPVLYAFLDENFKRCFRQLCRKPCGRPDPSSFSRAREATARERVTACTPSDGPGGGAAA
Conditions: not given
For `O=C(O)c1nc2ccccc2n(C2CC3CCCC(C2)N3C23CC4CC(CC2C4)C3)c1=O` (stereo not shown) [compound 263, 4-(9-(hexahydro-2,5-methano-pentalen-3a-yl)-9-aza-bicyclo[3.3.1]non-3-yl)-3-oxo-3,4-dihydro-quinoxaline-2-carboxylic acid], the affinity, expressed as Ki, was 526000 nM.

The next test deals with FCA-induced inflammation of the rat hind paw.
Assay: not given
The settings on record: in vivo.
For `O=C(O)c1nc2ccccc2n([C@H]2C[C@H]3CCC[C@@H](C2)N3C2CCCCCCC2)c1=O` [compound 241, 4-((endo)-9-cyclooctyl-9-azabicyclo[3.3.1]nonan-3-yl)-3-oxo-3,4-dihydroquinoxaline-2-carboxylic acid], the “maximum % reversal of thermal hyperalgesia” value is “about 80%”.
